Test results taken from article PMC5365662, “A Short Double-Stapled Peptide Inhibits Respiratory Syncytial Virus Entry and Spreading” (Antimicrobial Agents and Chemotherapy, 2017).
Bridge positions count the residues as written; N and C are the ends. Square brackets hold non-standard residues; d marks the D form. Peptide text beside a SMILES is read from it. R8 = C=CCCCCCC[C@@](C)(N)C(=O)O; S5 = C=CCCC[C@](C)(N)C(=O)O

Experiments:
circular dichroism = settings: 10 mM phosphate; pH 7.5; 25 °C; 50 uM
[1] = tested on: recombinant GFP-expressing RSV (strain A2) in A549 cells; type: cell-based, human respiratory syncytial virus; settings: A549 cells, eGFP RSV, GFP-positive cells by FACS 24 h p.i.
Experimental: A549 cells were infected with a recombinant green fluorescent protein (GFP)-expressing RSV (strain A2) ([23]), and the inhibitory activity of the peptide was quantified by flow cytometry.
Each peptide was diluted 3 times by 2-fold serial dilutions. eGFP RSV virus at an MOI of 0.5 was used for the infection, and GFP-positive cells were counted by FACS analysis 24 h p.i. The GFP data were normalized to the fluorescence values observed with virus only and plotted as percent inhibition.
Serial 4-fold dilutions of inhibitors were mixed with eGFP-encoding RSV virus ([23]) with a volume of virus required to achieve approximately 50% of infection in medium containing 2% fetal calf serum. The resulting mixture was added to 24-well plates containing A549 cells. Cells were incubated for 2 h at 37°C, the medium was replaced, and cells were incubated for an additional 24 h. Cells were treated with 300 μl of trypsin for 10 min at 37°C, and the detached cells were diluted in 1 ml of culture medium. Following centrifugation at 1,700 rpm, the pellet was resuspended in 300 μl of PBS–1% fetal bovine serum (FBS) (vol/vol) and GFP-positive cells were counted by fluorescence-activated cell sorter (FACS) analysis. The GFP data were normalized to the fluorescence value observed with virus only. The resulting inhibition curves were fitted in Igor Pro as described above.

[2] = target: 5HB, a recombinant protein containing 3 HR1 domains covalently attached to 2 HR2 domains; settings: competition with fluorescently labeled T108 probe (2 nM), 5HB 50 nM, 10 min preincubation + 30 min room temperature, duplicates
Text: The RSV HR2 region (residues 476 to 524) is a 49-amino-acid sequence that has been extensively characterized (Fig. 1). HR2 is a largely unstructured peptide in aqueous solution folding into an α-helix upon binding to trimeric HR1 coiled coils ([20]). […] We reduced HR2 (aa 483 to 516) into three short overlapping subdomains (subdomains 1 to 3) (Fig. 1). These peptides were scanned for various stapling combinations. […] Far-UV circular dichroism (CD) spectropolarimetry was used to investigate the effect of stapling on the α-helical content of the peptides. […] To assess the propensity of the stapled peptides to hinder the formation of the postfusion six-helix bundle required for viral cell entry, we used a 5-helix bundle (5HB) biochemical fluorescence polarization (FP) competition assay as previously described ([21], [22]).
The coding sequence of 5HB was designed as described previously and de novo synthesized by Genscript ([21]). The HR1 (aa 126 to 182) and HR2 (aa 476 to 524) coding sequences from wild-type RSV A2 strain F ([36]) were codon optimized for overexpression in Escherichia coli and cloned at NdeI/BamHI restriction sites of pET-15b to generate the expression plasmid for 5HB. The 5HB expression construct was transformed into Escherichia coli BL21(DE3). Cells were grown at 37°C to an optical density at 600 nm of 0.8 followed by induction with isopropyl-1-thio-β-D-galactopyranoside at a final concentration of 0.5 mM for 12 to 15 h. Cells were harvested by centrifugation, washed twice with PBS, and resuspended in 20 ml of PBS (pH 7.4), 500 mM NaCl, and 1% Triton X-100 supplemented with complete protease inhibitor. Cell suspensions were disrupted by sonication. Cell debris was removed through ultracentrifugation at 18,000 × g for 1 h at 4°C, and clarified cell lysate was mixed with 1 ml of nickel-nitrilotriacetic acid (Ni-NTA) agarose beads (Qiagen) preequilibrated with 20 ml of lysis buffer. The suspension was agitated for 1 h at 4°C and loaded onto a 5-ml polypropylene column (Qiagen). The column was washed twice with 8 ml of PBS (pH 7.4), 500 mM NaCl, 1% Triton X-100, and 100 mM imidazole. Proteins were eluted with 5 × 500 μl of a buffer containing PBS (pH 7.4), 300 mM imidazole, and 500 mM NaCl. The imidazole was removed by dialysis, and protein purity was assessed by SDS-polyacrylamide gel electrophoresis followed by Coomassie blue staining. Protein concentration was determined with the Qubit 2.0 Fluorometer (Life Technologies).
The T108 ([12]) peptide probe was synthesized by standard SPPS procedures using HCTU as a coupling reagent as described above. A 10-μl volume of recombinant 5HB protein in FP buffer (20 mM PBS [pH 7.4], 500 mM NaCl, 0.01% [vol/vol] Tween 20, and 0.05 mg/ml bovine gamma globulin) was preincubated for 10 min at room temperature with 10 μl of the appropriate concentration of the inhibitor, after which 10 μl of fluorescein isothiocyanate (FITC)-T106 was added and further incubated for 30 min at room temperature. The final concentrations of protein and probe were 50 nM and 2 nM, respectively. The fluorescence polarization assay was performed in 384-well plates using a Spectramax Paradigm (Molecular Devices), using excitation and emission wavelengths of 485 nm and 535 nm, respectively. The acquisition time was 700 ms, and the read height was 1 mm. All experiments were performed in duplicate. […] In order to ensure robust fitting for some fits, r0 was kept constant at the value measured for the free tracer in buffer.

[3] = Far-UV circular dichroism, α-helical content; type: physicochemical; settings: CD, indicator of α-helical stability
Experimental: The circular dichroism spectra were acquired on a Chirascan spectropolarimeter. The samples were prepared in 10 mM phosphate buffer, pH 7.5, at a peptide concentration of 50 μM. Data were recorded at 25°C by step scan from 180 nm to 260 nm in a 0.5-mm path length quartz cell using 1-nm wavelength increments and a response time of 1 s. The data were converted to per residue molar ellipticity units [θ] (degree per square centimeter per decimole per residue) and smoothed using the Igor Pro software. The percentage of helicity was calculated as described previously ([35]).

| Compound | helicity (circular dichroism) | inhibition of RSV-eGFP infection (in words) [1] | Kd [2] | θ208/θ222 molar ellipticity ratio [3] |
| --- | --- | --- | --- | --- |
| CC[C@H](C)[C@@H]1NC(=O)[C@H](Cc2ccccc2)NC(=O)[C@@](C)(NC(=O)[C@H](CC(C)C)NC(=O)[C@H](CO)NC(=O)[C@H](CCC(N)=O)NC(=O)[C@H](CCC(=O)O)NC(C)=O)CCCC=CCCC[C@@](C)(C(=O)N[C@@H](CO)C(=O)N[C@@H](CC(=O)O)C(=O)N[C@@H](CCC(=O)O)C(=O)N[C@@H](CC(C)C)C(=O)N[C@@H](CC(C)C)C(=O)N[C@@H](Cc2c[nH]cn2)C(=O)N[C@@H](CC(N)=O)C(=O)N[C@H](C(N)=O)C(C)C)NC(=O)[C@H](CCCNC(=N)N)NC1=O [Peptide 3a] (Ac-EQSL[S5]FIR[S5]SDELLHNV-NH2; staple 5-9) | 33.9% | none | 5.8 ± 1.8 µM | – |
| CC[C@H](C)[C@@H]1NC(=O)[C@H](Cc2ccccc2)NC(=O)[C@H](C)NC(=O)[C@H](CC(C)C)NC(=O)[C@H](CO)NC(=O)[C@](C)(NC(=O)[C@H](CCC(=O)O)NC(C)=O)CCCCCCC=CCCC[C@@](C)(C(=O)N[C@@H](CO)C(=O)N[C@@H](CC(=O)O)C(=O)N[C@@H](CCC(=O)O)C(=O)N[C@@H](CC(C)C)C(=O)N[C@@H](CC(C)C)C(=O)N[C@@H](Cc2c[nH]cn2)C(=O)N[C@@H](CC(N)=O)C(=O)N[C@H](C(N)=O)C(C)C)NC(=O)[C@H](CCCNC(=N)N)NC1=O [Peptide 3d] (Ac-E[R8]SLAFIR[S5]SDELLHNV-NH2; staple 2-9) | 24.4% | none | 3.2 ± 2.7 µM | – |
| CC[C@H](C)[C@H](NC(=O)[C@H](CCCCN)NC(=O)[C@]1(C)CCCC=CCCCCCC[C@@](C)(NC(=O)[C@H](CC(=O)O)NC(=O)[C@H](Cc2ccccc2)NC(=O)[C@H](CCC(=O)O)NC(=O)[C@H](CC(=O)O)NC(=O)[C@H](CO)NC(=O)[C@@H]2CCCN2C(=O)[C@H](Cc2ccccc2)NC(=O)[C@H](CCC(=O)O)NC(C)=O)C(=O)N[C@@H](CO)C(=O)N[C@@H]([C@@H](C)CC)C(=O)N[C@@H](CO)C(=O)N[C@@H](CCC(N)=O)C(=O)N[C@@H](C(C)C)C(=O)N[C@@H](CC(N)=O)C(=O)N1)C(=O)N[C@@H](CC(N)=O)C(N)=O [Peptide 1b] (Ac-EFPSDEFD[R8]SISQVN[S5]KIN-NH2; staple 9-16) | 19.8% | none | 47 ± 6 µM | – |
| CC[C@H](C)[C@H](NC(=O)[C@H](CCCCN)NC(=O)[C@H](CCC(=O)O)NC(=O)[C@H](CC(N)=O)NC(=O)[C@@H](NC(=O)[C@H](CCC(N)=O)NC(=O)[C@H](CO)NC(=O)[C@@H](NC(=O)[C@H](CO)NC(=O)[C@H](C)NC(=O)[C@]1(C)CCCC=CCCC[C@](C)(NC(=O)[C@@H]2CCCN2C(=O)[C@H](Cc2ccccc2)NC(=O)[C@H](CCC(=O)O)NC(C)=O)C(=O)N[C@@H](CC(=O)O)C(=O)N[C@@H](CCC(=O)O)C(=O)N[C@@H](Cc2ccccc2)C(=O)N1)[C@@H](C)CC)C(C)C)C(=O)N[C@@H](CC(N)=O)C(N)=O [Peptide 1d] (Ac-EFP[S5]DEF[S5]ASISQVNEKIN-NH2; staple 4-8) | 34.3% | none | 8 ± 4 µM | – |
| CC[C@H](C)[C@H](NC(=O)[C@H](CCCCN)NC(=O)[C@]1(C)CCCC=CCCC[C@](C)(NC(=O)[C@@H](NC(=O)[C@H](CO)NC(=O)[C@]2(C)CCCC=CCCC[C@](C)(NC(=O)[C@H](CO)NC(=O)[C@@H]3CCCN3C(=O)[C@H](Cc3ccccc3)NC(=O)[C@H](CCC(=O)O)NC(C)=O)C(=O)N[C@@H](CCC(=O)O)C(=O)N[C@@H](Cc3ccccc3)C(=O)N[C@@H](CC(=O)O)C(=O)N2)[C@@H](C)CC)C(=O)N[C@@H](CCC(N)=O)C(=O)N[C@@H](C(C)C)C(=O)N[C@@H](CC(N)=O)C(=O)N1)C(=O)N[C@@H](CC(N)=O)C(N)=O [Peptide 1eg] (Ac-EFPS[S5]EFD[S5]SI[S5]QVN[S5]KIN-NH2; staple 5-9, 12-16) | 35.3% | – | 24 ± 4 µM | ~1 |
| CC[C@H](C)[C@H](NC(=O)[C@H](CCCCN)NC(=O)[C@H](CCC(=O)O)NC(=O)[C@H](CC(N)=O)NC(=O)[C@@H](NC(=O)[C@H](CCC(N)=O)NC(=O)[C@]1(C)CCCC=CCCCCCC[C@@](C)(NC(=O)[C@H](CO)NC(=O)[C@@H]2CCCN2C(=O)[C@H](Cc2ccccc2)NC(=O)[C@H](CCC(=O)O)NC(C)=O)C(=O)N[C@@H](CCC(=O)O)C(=O)N[C@@H](Cc2ccccc2)C(=O)N[C@@H](CC(=O)O)C(=O)N[C@@H](C)C(=O)N[C@@H](CO)C(=O)N[C@@H]([C@@H](C)CC)C(=O)N1)C(C)C)C(=O)N[C@@H](CC(N)=O)C(N)=O [Peptide 1a] (Ac-EFPS[R8]EFDASI[S5]QVNEKIN-NH2; staple 5-12) | 14.2% | none | 9.8 ± 1.5 µM | – |
| CC[C@H](C)[C@H](NC(=O)[C@H](CCCCN)NC(=O)[C@H](CCC(=O)O)NC(=O)[C@H](CC(N)=O)NC(=O)[C@@H](NC(=O)[C@]1(C)CCCC=CCCC[C@](C)(NC(=O)[C@H](CC(=O)O)NC(=O)[C@H](Cc2ccccc2)NC(=O)[C@H](CCC(=O)O)NC(=O)[C@H](CC(=O)O)NC(=O)[C@H](CO)NC(=O)[C@@H]2CCCN2C(=O)[C@H](Cc2ccccc2)NC(=O)[C@H](CCC(=O)O)NC(C)=O)C(=O)N[C@@H](CO)C(=O)N[C@@H]([C@@H](C)CC)C(=O)N[C@@H](CO)C(=O)N1)C(C)C)C(=O)N[C@@H](CC(N)=O)C(N)=O [Peptide 1f] (Ac-EFPSDEFD[S5]SIS[S5]VNEKIN-NH2; staple 9-13) | 35.2% | none | 7.4 ± 1.3 µM | – |
| CC[C@H](C)[C@H](NC(=O)[C@H](Cc1ccccc1)NC(=O)[C@H](C)NC(=O)[C@H](CC(C)C)NC(=O)[C@H](CO)NC(=O)[C@H](CCC(N)=O)NC(=O)[C@H](CCC(=O)O)NC(C)=O)C(=O)N[C@@H](CCCNC(=N)N)C(=O)N[C@]1(C)CCCCCCC=CCCC[C@@](C)(C(=O)N[C@H](C(N)=O)C(C)C)NC(=O)[C@H](Cc2c[nH]cn2)NC(=O)[C@H](CC(C)C)NC(=O)[C@H](CC(C)C)NC(=O)[C@H](CCC(=O)O)NC(=O)[C@H](CC(=O)O)NC(=O)[C@H](CO)NC1=O [Peptide 3f] (Ac-EQSLAFIR[R8]SDELLH[S5]V-NH2; staple 9-16) | 26.4% | none | 4.1 ± 1.9 µM | – |
